The text below walks through data of patent US20080206311A1, “Sucrase Activity Inhibitor, Glucoamylase Activity Inhibitor and Food and Feed Containing the Same” (MITSUI SUGAR CO., LTD., priority 2005, published 2008).

In assay [1] the test system is glucoamylase. In words: Glucoamylase activity inhibition with rat small-intestinal enzyme liquid, substrate soluble starch. The conditions noted are these: 5% soluble starch + 5% test sample. It counts as biochemical. The procedure:
Two grams of rat small-intestinal acetone powder (ex Sigma Corporation) were dissolved in 20 ml of 0.1 M phosphate buffer (pH 6.8), left standing one day at 5° C., and subsequently subjected to centrifugal separation (8000 rpm×15 min.). The supernatant was filtered through a 0.8 μm membrane filter to obtain a small-intestinal enzyme liquid. This liquid contained a mixture of enzymes present in small intestine, such as sucrose, glucoamylase, maltase, and isomaltase.
Each 0.25 ml of the small-intestinal enzyme liquid was added to each 5 ml of Solutions 1 through 5 and placed in a water bath at 37° C. to allow them to react for 60 min. while shaken at 60 strokes/min. After the reaction, they were heated in a boiling water bath for 3 min. for inactivation of the enzymes.
The glucose concentration in each solution after the reaction was measured using the F-kit Glucose (ex Roche). A liberated glucose concentration (g/l) was calculated by subtracting the blank value (0.1 M phosphate buffer alone) and the concentration of glucose originally contained in the test sample from each glucose concentration measured.
Next, each of the liberated glucose concentration was input in the following equation to obtain decomposition inhibition ratio for maltase and sucrose. In the present tests, the substrates and the inhibitors were decomposed by enzymes present in the small-intestinal enzyme liquid. However, the enzymes decomposing the substrates are different from the enzymes decomposing the inhibitors. The decomposition inhibition ratio was determined as a measure for the inhibitory effect. When the inhibitor was added, the glucose concentration was lower than that seen when the substrate alone was reacted. A higher decomposition inhibition ratio means a stronger inhibitory effect.
Decomposition inhibition ratio,%={(A+B)−(AB)}+(A+B)×100 [Equation 1]
wherein (A+B) indicates a sum of a liberated glucose concentration in the control solution containing the test sample alone after the reaction (A) and a liberated glucose concentration in the control solution containing the substrate alone after the reaction (B); and (AB) indicates a liberated glucose concentration in the test solution containing the test sample (A) and the substrate (B), after the reaction.
The procedures in Example 1 were repeated with the exception that palatinose and palatinit were used as a test sample and soluble starch was used as a substrate. The test samples and the substrate were dissolved in 0.1 M phosphate buffer (pH 6.8) to attain the concentration shown in Table 6 to thereby prepare two test solutions. Besides, each of the test samples or the substrate was dissolved in 0.1 M phosphate buffer (pH 6.8) to attain the concentration shown in Table 6 to thereby prepare control solutions. Each 5 ml of the aforementioned test solutions and the control solutions was subjected to the enzymatic reaction according to the same procedures as in Example 1 and the liberated glucose concentration and the decomposition inhibition ratio were measured.
The procedures in Example 1 were repeated with the exception that trehalulose was used as a test sample and soluble starch was used as a substrate. The test sample and the substrate were dissolved in 0.1 M phosphate buffer (pH 6.8) to attain the concentration shown in Table 9 to thereby prepare a test solution. Besides, the test sample or the substrate was dissolved in 0.1 M phosphate buffer (pH 6.8) to attain the concentration shown in Table 9 to thereby prepare control solutions. Each 5 ml of the aforementioned test solution and the control solutions was subjected to the enzymatic reaction according to the same procedures as in Example 1 and the liberated glucose concentration and the decomposition inhibition ratio were measured.
The procedures in Example 1 were repeated with the exception that trehalose was used as a test sample and soluble starch was used as a substrate. […]

Another assay concerns the target T1, sucrase (Rattus norvegicus, UniProt P23739).
T1 construct: This liquid contained a mixture of enzymes present in small intestine, such as sucrose, glucoamylase, maltase, and isomaltase; tissue Sigma Corporation; host or cells: rat small intestine (acetone powder), buffer extract, unpurified
The assay can be described thus: Ratio of inhibitor to the substrate sucrose (Examples 8, 9). As to conditions: 10 min. It counts as biochemical. The procedure: Twenty samples with the concentrations shown in Table 11, Samples A-1 through A-20, were dissolved in 0.1 M phosphate buffer (pH 6.8) to a final volume of 2.5 ml.
This was made in the same way as in the preparation of a small intestinal enzyme solution in Example 1.
(§1) Each 0.15 ml of a small intestinal enzyme solution was added to each 2.5 ml of the aforementioned 20 samples, each mixture, and placed in a water bath at 37° C. to allow reaction for 10 minutes while shaken at 60 strokes/min. At the end of the reaction, the mixture was heated in a boiling water bath for 3 min. for inactivation of the enzyme. As a blank, 0.15 ml of the intestinal enzyme solution was added to 0.1 M phosphate buffer (pH 6.8) and the enzyme was inactivated immediately.
(§2) After the reaction, the glucose concentration in each solution was measured using the F-kit Glucose (ex Roche) as in Example 1.
The procedures in Example 8 were repeated with the exception that twenty samples with the concentrations shown in Table 12, Samples B-1 through B-20, were dissolved in 0.1 M phosphate buffer (pH 6.8) to a final volume of 2.5 ml.

Assay [2] concerns glucoamylase. The assay can be described thus: Ratio of inhibitor to the substrate dextrin (Examples 10, 11). It is filed as biochemical, rat. The procedure:
as §1, §2
The procedures in Example 8 were repeated with the exception that sixteen samples with the concentrations shown in Table 13, Samples C-1 through C-16, were dissolved in 0.1 M phosphate buffer (pH 6.8) to a final volume of 2.5 ml.
The procedures in Example 8 were repeated with the exception that sixteen samples with the concentrations shown in Table 14, Samples D-1 through D-16, were dissolved in 0.1 M phosphate buffer (pH 6.8) to a final volume of 2.5 ml.

SMILES strings stand for the structures.

T1 sequence (P23739 whole entry): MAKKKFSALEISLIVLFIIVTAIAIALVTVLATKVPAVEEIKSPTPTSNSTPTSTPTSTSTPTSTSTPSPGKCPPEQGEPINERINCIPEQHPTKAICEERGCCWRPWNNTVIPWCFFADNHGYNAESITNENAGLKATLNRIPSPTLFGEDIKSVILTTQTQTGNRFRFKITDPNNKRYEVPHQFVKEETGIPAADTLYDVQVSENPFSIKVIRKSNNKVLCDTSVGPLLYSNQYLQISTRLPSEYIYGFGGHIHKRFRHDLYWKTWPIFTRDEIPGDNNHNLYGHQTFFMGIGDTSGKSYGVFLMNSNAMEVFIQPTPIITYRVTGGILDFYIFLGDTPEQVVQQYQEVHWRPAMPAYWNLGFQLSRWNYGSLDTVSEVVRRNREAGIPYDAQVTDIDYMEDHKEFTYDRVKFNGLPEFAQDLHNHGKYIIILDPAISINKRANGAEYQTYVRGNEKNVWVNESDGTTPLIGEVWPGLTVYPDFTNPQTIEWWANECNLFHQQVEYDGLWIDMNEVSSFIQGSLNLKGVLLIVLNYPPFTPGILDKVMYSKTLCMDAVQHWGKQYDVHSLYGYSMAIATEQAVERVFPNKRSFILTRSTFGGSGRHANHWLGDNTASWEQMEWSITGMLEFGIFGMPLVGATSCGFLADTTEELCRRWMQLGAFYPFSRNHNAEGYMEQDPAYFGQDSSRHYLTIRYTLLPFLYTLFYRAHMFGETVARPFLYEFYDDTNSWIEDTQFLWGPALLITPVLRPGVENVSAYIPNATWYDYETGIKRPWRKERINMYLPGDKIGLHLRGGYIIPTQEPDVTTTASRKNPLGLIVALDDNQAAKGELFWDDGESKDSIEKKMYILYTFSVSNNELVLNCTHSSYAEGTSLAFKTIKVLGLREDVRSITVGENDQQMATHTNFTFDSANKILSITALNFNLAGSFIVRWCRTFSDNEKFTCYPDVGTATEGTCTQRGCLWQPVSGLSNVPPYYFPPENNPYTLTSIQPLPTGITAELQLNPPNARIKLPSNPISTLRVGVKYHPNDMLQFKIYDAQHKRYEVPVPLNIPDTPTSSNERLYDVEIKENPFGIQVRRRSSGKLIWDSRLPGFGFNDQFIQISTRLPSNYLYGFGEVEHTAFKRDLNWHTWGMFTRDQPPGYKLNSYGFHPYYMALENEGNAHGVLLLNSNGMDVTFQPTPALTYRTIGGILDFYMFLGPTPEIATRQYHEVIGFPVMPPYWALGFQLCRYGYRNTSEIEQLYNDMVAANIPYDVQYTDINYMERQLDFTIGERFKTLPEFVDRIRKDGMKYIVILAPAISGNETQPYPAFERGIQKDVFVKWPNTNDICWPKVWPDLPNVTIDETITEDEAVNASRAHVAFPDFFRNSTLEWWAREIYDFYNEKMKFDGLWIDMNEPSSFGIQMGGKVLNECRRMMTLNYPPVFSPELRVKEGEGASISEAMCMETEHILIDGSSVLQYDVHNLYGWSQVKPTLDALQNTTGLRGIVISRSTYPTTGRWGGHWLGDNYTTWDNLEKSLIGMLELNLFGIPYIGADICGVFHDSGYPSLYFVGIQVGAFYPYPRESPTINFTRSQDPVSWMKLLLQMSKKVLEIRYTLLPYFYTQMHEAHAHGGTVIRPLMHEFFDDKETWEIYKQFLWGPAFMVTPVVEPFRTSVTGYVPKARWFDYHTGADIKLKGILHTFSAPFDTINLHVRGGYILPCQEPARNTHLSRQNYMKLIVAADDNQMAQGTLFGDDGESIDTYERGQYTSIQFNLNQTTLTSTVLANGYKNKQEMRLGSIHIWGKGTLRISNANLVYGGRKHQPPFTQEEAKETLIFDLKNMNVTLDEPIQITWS

As to `OC[C@H]1O[C@H](OC[C@H]2OC(O)(CO)[C@@H](O)[C@@H]2O)[C@H](O)[C@@H](O)[C@@H]1O` (stereo partly shown) [palatinose, isomaltulose], in the assay on glucoamylase [1], the “Glucoamylase activity inhibitory effect (in words)” value was “have the glucoamylase activity inhibitory effect”. Besides, in the assay on glucoamylase [1] (Example 4), the “Decomposition inhibition ratio, %, against glucoamylase” value was 26% and the Liberated glucose concentration stood at 3.611 g/L. Also, the “Inhibitory effect on the decomposition of sucrose (FIG. 5)” value on sucrase (sucrose concentration 0.5%, palatinose 5, 10, 50% relative to sucrose) is given as “not clear”. Further, on sucrase (sucrose concentrations 3%, 5%, 10% and 15%), the “Ratio of palatinose added relative to the weight of sucrose at which decomposition of sucrose was suppressed (FIG. 4)” value was not below 10%. Besides, the “Ratio of inhibitor added relative to the weight of dextrin at which the inhibitory effect on decomposition of dextrin was seen at all dextrin concentrations” value with glucoamylase [2] (dextrin 0.5%, 2%, 5%, 10%, FIG. 8 (palatinose), FIG. 9 (palatinit)) was “above 10%”. The “Inhibitory effect on decomposition of dextrin (FIG. 8)” value in the assay on glucoamylase [2] (palatinose 5% relative to the weight of dextrin, dextrin concentration 10%) is “no inhibitory effect on decomposition of dextrin was seen”.
